# Results reported in patent US12201622B2, “Continuous delivery of lenalidomide and other immunomodulatory agents” (Starton Therapeutics, Inc., priority 2019, dated 2025).
# Entries after “also recorded” stand apart in the source; their conditions may differ.
# Columns and labels:
# [1] = test system: H929 multiple myeloma tumor cells; assay: Efficacy of lenalidomide continuous infusion in H929 myeloma xenograft model; assay type: in vivo, CB.17 SCID mouse
# Description: In this study, a composition comprising lenalidomide was continuously delivered via subcutaneous infusion or was delivered once a day via intraperitoneal injection to SCID mice wherein the mice were implanted with a H929 multiple myeloma xenograft.
# (§1) Six groups of female CB.17 SCID mouse, each containing ten mice, were subcutaneously injected with 1×10^7 H929 multiple myeloma tumor cells in 50% Matrigel. After the tumor reached an average size of 100-150 mm^3, an iPrecio pump was surgically implanted into each of the mice. Dosing began twenty-four hours post pump implantation. Group 1, the control group, was treated with vehicle via intraperitoneal injection once a day. Group 2 was treated with lenalidomide via intraperitoneal injection once a day. Each of Groups 3-6 was treated lenalidomide via continuous subcutaneous infusion at different hourly rate. The dosing lasted 14 days followed by one day off the treatment and lasted for another 14 days. The iPrecio pump was replaced after 14 days. The formulation used in Groups 2-6 contains 20% PEG400 in water as the carrier. Blood was drawn at predetermined time points and analyzed
# The table below lists the daily dose and schedule for each of the six groups.
# [2] = Body weight and hematologic toxicity (WBC, PLT, ANC) in xenografted SCID mice; assay type: in vivo, CB.17 SCID mouse; settings: for ANC: normal range 0.77-2.5; for WBC: normal range 1.4-5.4; for PLT: normal range 733-1441
# Procedure: as §1
# [3] = Blood levels of lenalidomide in SCID mice after daily intraperitoneal dose; assay type: in vivo, SCID mouse; settings: Group 2: 500 mcg ip once a day
# Procedure: In the study described in Example 1, the SCID mice in Group 2 were given the standard of care treatment which is a daily intraperitoneal dose of 25 mg/kg (500 mcg for 20 gm mouse) administered once a day. […] For example, if the continuous blood level is greater than that observed at 16 hours but less than that observed at 10 hours in daily intraperitoneal dose of 500 mcg administered once a day, it is effective and non-toxic. The maintenance of continuous dose specific blood levels in terms of their time range are predicted to be safe and effective and result in activity in humans.
# as §1
# The multiple myeloma study in SCID mice provides pharmacokinetically modeled data to support three treatment paradigms. The standard of care treatment in the mouse model study is a daily intraperitoneal dose of 500 mcg administered once a day (see Group 2). […] The range of tolerable and effective blood levels ranged from the blood level at 10 hours to the blood level at 16 hours. Continuous blood levels of greater than those observed at 8 hours or 0.29 mcg/mL and lower than those observed at 18 hours or 0.013 mcg/mL were either toxic or ineffective, respectfully. The maintenance of continuous dose specific blood levels in terms of their time range are predicted to be safe and effective and result in activity in humans.
# [4] = Group 3: 144 μg/day (6 μg/hr) sc continuous, day 8
# [5] = Group 4: 48 μg/day (2 μg/hr) sc continuous, day 8
# [6] = Group 5: 24 μg/day (1 μg/hr) sc continuous, day 8
# [7] = Group 6: 12 μg/day (.5 μg/hr) sc continuous, day 8
structure (smiles),measurement,setting,value
"Nc1cccc2c1CN(C1CCC(=O)NC1=O)C2=O (stereo not shown) [lenalidomide, 3-(4-amino-1-3-dihydro-1-oxo-2H-isoindol-2yl)-2,6-piperidinedione]",survival (Kaplan-Meier),[1]; Group 2: 500 μg/day ip qd,no mouse survived at day 52
same,tumor volume,"[1]; Group 2: 25 mg/kg (500 μg/day) ip qd x 14/1 day off/qd x 14, 25 mg/kg",failed to inhibit the growth of the tumor volume; also recorded: slowed progression but did not inhibit the growth of the tumor size
same,tumor volume,"[1]; Group 3: 144 μg/day (6 μg/hr) continuous sc infusion, 14 days/1 day off/14 days",the only group having tumor volume reduced during the treatment schedule; also recorded: effectively reduced the tumor size in all animals treated at 6 mcg/hr
same,survival (Kaplan-Meier),"[1]; Group 3: 144 μg/day continuous sc infusion, day 1 to day 95",the only group having mice survived for 95 days
same,ANC,"[2]; Group 2: 25 mg/kg ip qd, day 8",1.2 10^3 cells/μL
same,WBC,"[2]; Group 2: 25 mg/kg ip qd, day 8",1.8 10^3 cells/μL
same,PLT,"[2]; Group 2: 25 mg/kg ip qd, day 8",850 10^3 cells/μL
same,ANC,[2]; [4],2.4 10^3 cells/μL
same,WBC,[2]; [4],2.8 10^3 cells/μL
same,PLT,[2]; [4],1360 10^3 cells/μL
same,ANC,[2]; [5],1.9 10^3 cells/μL
same,WBC,[2]; [5],2.4 10^3 cells/μL
same,PLT,[2]; [5],1345 10^3 cells/μL
same,ANC,[2]; [6],2.8 10^3 cells/μL
same,WBC,[2]; [6],3.3 10^3 cells/μL
same,PLT,[2]; [6],1410 10^3 cells/μL
same,ANC,[2]; [7],2.5 10^3 cells/μL
same,WBC,[2]; [7],3.2 10^3 cells/μL
same,PLT,[2]; [7],1535 10^3 cells/μL
same,body weight,"[2]; continuous sc infusion (Group 3, 144 μg/day)",insignificant weight loss; also recorded: did not result in substantial loss of body weight
same,hematologic toxicity,"[2]; continuous sc infusion, Groups 3-6 (12-144 μg/day), day 8",no substantial hematologic toxicity; also recorded: did not result in substantial loss of body weight or hematologic toxicity
same,blood level trough,[3],2 ng/mL
same,Cmax,"[3]; female, CB.17 SCID, mouse, blood, 500 ug, at 0.08 hours, read-out: blood level Cmax",2900 ng/mL
same,concentration at 8 h,"[3]; female, CB.17 SCID, mouse, blood, 25 mg/kg, read-out: blood level at 8 hours",290 ng/mL
same,concentration at 18 h,"[3]; female, CB.17 SCID, mouse, blood, 25 mg/kg, read-out: blood level at 18 hours",13 ng/mL
